Experimental findings from patent US8361968B2 (Takeda Pharmaceutical Company Limited, priority 2002, dated 2013) are described below.

Test [1] has as its target T1, hOT7T175 (Homo sapiens, UniProt Q969F8, L364H). Briefly: hOT7T175 receptor binding activity: binding inhibition of Cy-5-labeled metastin (40-54) on hOT7T175-expressed CHO cells. On the set-up: expressed in transfected cells; host or cells: CHO cells. As to the method: Assay for hOT7T175 Receptor Binding Activity
h0T7T175-Expressed CHO cells were cultured in MEM-cc medium (nucleic acid-free) containing 10% dialyzed serum. The medium was removed and the adherent cells were washed with PBS. Then, PBS containing 5 mM EDTA was added and the cells were scraped from a flask with a cell scraper. […] To each well of a 96-Well Black Clear Bottom Plate (Applied Biosystems, Inc.), 10 μL of assay buffer containing 1% dimethylsulfoxide was added to examine total binding, 10 μL of 10 μM non-labeled peptide (having the same amino acid sequence as that of the labeled one) solution diluted with assay buffer to examine non-specific binding, and 10 μL of a test compound diluted with assay buffer to examine the binding inhibition activity of the test compound, respectively. Furthermore, 90 μL each of the cell suspension was dispensed to each well. […] The specific binding is a value obtained by subtracting the non-specific binding from the total binding.

The target of test [2] is T1, hOT7T175. The test is described as follows: Intracellular Ca ion level-increasing activity using FLIPR in hOT7T175/CHO. The test is classed as cell-based. Also on record: expressed in transfected cells; host or cells: CHO/dhfr- cells, obtained from ATCC. The note with it: relative, Metastin (1-54) = 1.

A word on the IC50: it is the point on the concentration scale where inhibition reaches its midpoint. Read a high IC50 as weaker potency.

Numbered stars: 1 amine (or outer) side, 2 acyl side, 3 side chain; on linkers, the order of the positions; unused ones are H or OH. Square brackets hold non-standard residues; d marks the D form. Peptide text beside a SMILES is read from it. X10 = NC(=O)C[C@@H](C(=O)[*:2])N(C[C@@H](N)Cc1ccc(O)cc1)[*:1]; 2Nal = N[C@@H](Cc1ccc2ccccc2c1)C(=O)O; Arg(Me) = CNC(=N)NCCC[C@H](N)C(=O)O; 2Pal = N[C@@H](Cc1ccccn1)C(=O)O; 3Pal = N[C@@H](Cc1cccnc1)C(=O)O; d4Pal = N[C@H](Cc1ccncc1)C(=O)O; azaGly = NNC(=O)O

T1 sequence (Q969F8 whole entry L364H): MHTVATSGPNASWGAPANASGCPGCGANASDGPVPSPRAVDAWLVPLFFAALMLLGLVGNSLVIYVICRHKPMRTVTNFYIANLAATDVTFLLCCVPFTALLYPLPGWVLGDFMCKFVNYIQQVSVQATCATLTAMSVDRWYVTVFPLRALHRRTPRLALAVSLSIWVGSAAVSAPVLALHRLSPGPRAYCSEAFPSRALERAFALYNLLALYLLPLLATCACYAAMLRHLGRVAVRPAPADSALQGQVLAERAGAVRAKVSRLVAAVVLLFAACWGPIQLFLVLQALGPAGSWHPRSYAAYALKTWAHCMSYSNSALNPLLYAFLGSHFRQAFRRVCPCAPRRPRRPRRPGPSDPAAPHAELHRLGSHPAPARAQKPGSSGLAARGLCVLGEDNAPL

Take `CNC(N)=NCCC[C@H](NC(=O)[C@H](CC(C)C)NC(=O)NNC(=O)[C@H](Cc1ccccc1)NC(=O)[C@H](CO)NC(=O)[C@H](CC(N)=O)NC(=O)[C@H](Cc1ccc2ccccc2c1)NC(=O)[C@H](N)Cc1ccc(O)cc1)C(=O)N[C@@H](Cc1ccccc1)C(N)=O` [Compound No. 255, D-Tyr-Nal(2)-Asn-Ser-Phe-AzaGly-Leu-Arg(Me)-Phe-NH2] (H-[dY][2Nal]NSF[azaGly]L[Arg(Me)]F-NH2): the IC50 on hOT7T175 [1] was determined as 33 nM.
`CC(C)C[C@H](NC(=O)CNC(=O)[C@H](Cc1ccccc1)NC(=O)[C@H](CO)NC(=O)[C@H](CC(N)=O)NC(=O)[C@H](Cc1c[nH]c2ccccc12)NC(=O)[C@H](CC(=O)O)NC(=O)[C@@H](N)Cc1ccc(O)cc1)C(=O)N[C@@H](CCCNC(=N)N)C(=O)N[C@@H](Cc1ccccc1)C(N)=O` [Compound No. 57] (H-YDWNSFGLRF-NH2): the IC50 at hOT7T175 [1] came to 100 nM.
Same read-out and setting: the same measure for `CC(C)C[C@H](NC(=O)CNC(=O)[C@H](Cc1ccccc1)NC(=O)[C@H](CO)NC(=O)[C@H](CC(N)=O)NC(=O)[C@H](C)NC(=O)[C@H](CC(N)=O)NC(=O)[C@@H](N)Cc1ccc(O)cc1)C(=O)N[C@@H](CCCNC(=N)N)C(=O)N[C@@H](Cc1ccccc1)C(N)=O` [Compound No. 67] (H-YNANSFGLRF-NH2): 27 nM; for `CC(C)C[C@H](NC(=O)CNC(=O)[C@H](Cc1ccccc1)NC(=O)[C@H](CO)NC(=O)[C@H](CC(N)=O)NC(=O)[C@H](CC(C)C)NC(=O)[C@H](CC(N)=O)NC(=O)[C@@H](N)Cc1ccc(O)cc1)C(=O)N[C@@H](CCCNC(=N)N)C(=O)N[C@@H](Cc1ccccc1)C(N)=O` [Compound No. 68] (H-YNLNSFGLRF-NH2): 7.7 nM; for `CNC(N)=NCCC[C@H](NC(=O)[C@H](CC(C)C)NC(=O)NNC(=O)[C@H](Cc1ccccc1)NC(=O)[C@H](CO)NC(=O)[C@H](CC(N)=O)NC(=O)[C@@H](Cc1ccncc1)NC(=O)[C@H](CC(N)=O)NC(=O)[C@H](N)Cc1ccc(O)cc1)C(=O)N[C@@H](Cc1ccccc1)C(N)=O` [Compound No. 302, D-Tyr-Asn-D-Pya(4)-Asn-Ser-Phe-AzaGly-Leu-Arg(Me)-Phe-NH2] (H-[dY]N[d4Pal]NSF[azaGly]L[Arg(Me)]F-NH2): 7.7 nM.
Still for that read-out and setting: the same measure for `CC(C)C[C@H](NC(=O)CNC(=O)[C@H](Cc1ccccc1)NC(=O)[C@H](CO)NC(=O)[C@H](CC(N)=O)NC(=O)[C@H](Cc1c[nH]c2ccccc12)NC(=O)[C@H](CC(N)=O)NC(=O)[C@@H](N)Cc1ccc(O)cc1)C(=O)N[C@@H](CCCCN)C(=O)N[C@@H](Cc1ccccc1)C(N)=O` [Compound No. 44] (H-YNWNSFGLKF-NH2): 190 nM; for `CNC(=N)NCCC[C@H](NC(=O)[C@H](CC(C)C)NC(=O)NNC(=O)[C@H](Cc1ccccc1)NC(=O)[C@H](CO)NC(=O)[C@H](CC(N)=O)NC(=O)[C@H](CCCNC(=N)N)NC(C)=O)C(=O)N[C@@H](Cc1ccccc1)C(N)=O` [Compound No. 275, Acetyl-Arg-Asn-Ser-Phe-AzaGly-Leu-Arg(Me)-Phe-NH2] (Ac-RNSF[azaGly]L[Arg(Me)]F-NH2): 410 nM.
On hOT7T175 [1], `CNC(=N)NCCC[C@H](NC(=O)[C@H](CC(C)C)NC(=O)NNC(=O)[C@H](Cc1ccccc1)NC(=O)[C@H](CO)NC(=O)[C@H](CC(N)=O)NC(=O)[C@H](Cc1cccnc1)NC(=O)[C@H](CC(N)=O)NC(=O)[C@H](N)Cc1ccc(O)cc1)C(=O)N[C@@H](Cc1ccccc1)C(N)=O` [Compound No. 251, D-Tyr-Asn-Pya(3)-Asn-Ser-Phe-AzaGly-Leu-Arg(Me)-Phe-NH2] (H-[dY]N[3Pal]NSF[azaGly]L[Arg(Me)]F-NH2) came in with a concentration for half-maximal inhibition (IC50) of 87 nM. Compared with the last compound, the IC50 is about 4.7-fold lower.
Same read-out and setting: the value for `CNC(=N)NCCC[C@H](NC(=O)[C@H](CC(C)C)NC(=O)NNC(=O)[C@H](Cc1ccccc1)NC(=O)[C@H](CO)NC(=O)[C@H](CC(N)=O)NC(=O)[C@@H]1CCCN1C(=O)[C@H](CC(N)=O)NC(=O)[C@H](N)Cc1ccc(O)cc1)C(=O)N[C@@H](Cc1ccccc1)C(N)=O` [Compound No. 253, D-Tyr-Asn-Pro-Asn-Ser-Phe-AzaGly-Leu-Arg(Me)-Phe-NH2] (H-[dY]NPNSF[azaGly]L[Arg(Me)]F-NH2) was 27 nM; that for `CNC(=N)NCCC[C@H](NC(=O)[C@H](CC(C)C)NC(=O)CNC(=O)[C@H](Cc1ccccc1)NC(=O)[C@H](CO)NC(=O)[C@H](CC(N)=O)NC(=O)[C@@H](Cc1c[nH]c2ccccc12)NC(=O)[C@H](N)CC(N)=O)C(=O)N[C@@H](Cc1ccccc1)C(N)=O` [Compound No. 225, D-Asn-D-Trp-Asn-Ser-Phe-Gly-Leu-Arg(Me)-Phe-NH2] (H-[dN][dW]NSFGL[Arg(Me)]F-NH2) was 410 nM; that for `CC(C)[C@H](NC(=O)CNC(=O)[C@H](Cc1ccccc1)NC(=O)[C@H](CO)NC(=O)[C@H](CC(N)=O)NC(=O)[C@H](Cc1c[nH]c2ccccc12)NC(=O)[C@H](CC(N)=O)NC(=O)[C@@H](N)Cc1ccc(O)cc1)C(=O)N[C@@H](CCCNC(=N)N)C(=O)N[C@@H](Cc1ccccc1)C(N)=O` [Compound No. 107] (H-YNWNSFGVRF-NH2) was 120 nM.
Turning to `CNC(=N)NCCC[C@H](NC(=O)[C@H](CC(C)C)NC(=O)NNC(=O)[C@H](Cc1ccccc1)NC(=O)[C@H](CO)NC(=O)[C@H](CC(N)=O)NC(=O)[C@H](Cc1ccccn1)NC(=O)[C@H](CC(N)=O)NC(=O)[C@H](N)Cc1ccc(O)cc1)C(=O)N[C@@H](Cc1ccccc1)C(N)=O` [Compound No. 285, D-Tyr-Asn-Pya(2)-Asn-Ser-Phe-AzaGly-Leu-Arg(Me)-Phe-NH2] (H-[dY]N[2Pal]NSF[azaGly]L[Arg(Me)]F-NH2), the IC50 on hOT7T175 [1] amounted to 40 nM. This IC50 is about 3-fold lower than that of the compound before.
Same read-out and setting: the same measure for `CC(C)C[C@H](NC(=O)CNC(=O)[C@H](Cc1ccccc1)NC(=O)[C@H](CO)NC(=O)[C@H](CC(N)=O)NC(=O)[C@H](Cc1c[nH]c2ccccc12)NC(=O)[C@H](CC(N)=O)NC(=O)[C@H](C)N)C(=O)N[C@@H](CCCNC(=N)N)C(=O)N[C@@H](Cc1ccccc1)C(N)=O` [Compound No. 72] (H-ANWNSFGLRF-NH2): 540 nM.
Consider `CNC(=N)NCCC[C@H](NC(=O)[C@H](CC(C)C)NC(=O)NNC(=O)[C@H](Cc1ccccc1)NC(=O)[C@H](CO)NC(=O)[C@H](CC(N)=O)NC(=O)[C@@H](Cc1c[nH]c2ccccc12)NC(=O)[C@H](CC(N)=O)NC[C@@H](N)Cc1ccc(O)cc1)C(=O)N[C@@H](Cc1ccccc1)C(N)=O` [Compound No. 300, TyrΨ(CH2NH)Asn-D-Trp-Asn-Ser-Phe-AzaGly-Leu-Arg(Me)-Phe-NH2] (H-[X10][dW]NSF[azaGly]L[Arg(Me)]F-NH2), for which the “Specific Activity (intracellular Ca ion level-increasing activity)” value at hOT7T175 [2] was 5.
Turning to `CNC(=N)NCCC[C@H](NC(=O)[C@H](CC(C)C)NC(=O)CNC(=O)[C@H](Cc1ccccc1)NC(=O)[C@H](CO)NC(=O)[C@H](CC(N)=O)NC(=O)[C@@H](Cc1c[nH]c2ccccc12)NC(=O)[C@@H](CC(N)=O)NC(=O)[C@H](N)Cc1ccc(O)cc1)C(=O)N[C@@H](Cc1ccccc1)C(N)=O` [Compound No. 231, D-Tyr-D-Asn-D-Trp-Asn-Ser-Phe-Gly-Leu-Arg(Me)-Phe-NH2], at hOT7T175 [2], the “Specific Activity (intracellular Ca ion level-increasing activity)” value amounted to 1.
On the same count and under the same terms, the same measure for `CNC(=N)NCCC[C@H](NC(=O)[C@H](CC(C)C)NC(=O)CNC(=O)[C@H](Cc1ccccc1)NC(=O)[C@H](CO)NC(=O)[C@H](CC(N)=O)NC(=O)[C@H](Cc1c[nH]c2ccccc12)NC(=O)[C@H](N)Cc1ccc(O)cc1)C(=O)N[C@@H](Cc1ccccc1)C(N)=O` [Compound No. 217] (H-[dY]WNSFGL[Arg(Me)]F-NH2): 20.
